Here are results for 16 compounds from patent US20250145589A1, “PYRIDINE DERIVATIVE AND USE THEREOF” (SICHUAN HUIYU PHARMACEUTICAL CO., LTD., priority 2021, published 2025).

Broadly, the IC50 is the midpoint of a concentration-inhibition curve.

Read-outs that look alike come from different tables or passages of the source.

The target of experiment [1] is PI3Kα (Homo sapiens (Human), UniProt P42336). Kind of experiment: Inhibition of PI3Kα efficacy assay (ADP-Glo kinase assay). It counts as biochemical. The settings on record: read-out: PI3Kα inhibitory activity (IC50). The gist of the method:
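Eight five-fold dilutions of compound (2 mM DMSO stock) tested; kinase reaction with PI and ATP ran 60 min at RT, followed by ADP-Glo and detection reagent steps of 40 min each. Four-parameter logistic fitting gave IC50 values.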
For orientation: In ADP-Glo the light output rises with the ADP produced.

For experiment [2], the target named is PI3Kδ (Homo sapiens (Human), UniProt O00329). In words: Inhibition of PI3Kδ efficacy assay (ADP-Glo kinase assay). It counts as biochemical. The conditions noted are these: read-out: PI3Kδ inhibitory activity (IC50). Summed up:
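Luminescent ADP-Glo readout of PI3Kδ: after a 60 min RT reaction with PI/ATP substrate, ATP depletion (40 min) and ADP detection (40 min) steps followed. Compounds tested as eight five-fold serial dilutions; inhibition rates fitted to log(inhibitor) vs. response, variable slope, for IC50.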

In experiment [3] the target is KRAS^G12C-SOS1 (Homo sapiens (Human), UniProt P01116, G12C). In words: HTRF KRAS G12C/SOS1 binding assay. The settings on record: Table 5. The gist of the method: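 Compound was serially diluted five-fold over eight points, with a 2 mM DMSO stock. After anti-tag-Tb3+ and anti-tag-XL665 were added, plates were incubated 3 h at 4 °C and read by HTRF (ex 337 nm, em 620/665 nm ratio). IC50 values come from four-parameter variable-slope fits.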
KRAS^G12C-SOS1, sequence (P01116-2 other isoform, or with tags, fused parts or gaps G12C): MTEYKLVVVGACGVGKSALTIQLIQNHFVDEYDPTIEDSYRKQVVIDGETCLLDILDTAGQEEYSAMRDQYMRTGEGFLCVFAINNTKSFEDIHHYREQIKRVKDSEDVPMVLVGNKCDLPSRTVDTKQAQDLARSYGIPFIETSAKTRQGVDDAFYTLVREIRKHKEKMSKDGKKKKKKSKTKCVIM
(In general: TR-FRET usually uses a lanthanide donor and a delayed reading to cut background.)

For experiment [4], the system named is MIA PaCa-2 cells (KRAS G12C mutant). Kind of experiment: MIA PaCa-2 cell anti-proliferation (CellTiter-Glo). It counts as cell-based. Summed up:
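Viable-cell luminescence (CellTiter-Glo, ≥30 min at 25 °C) measured after a 3-day, 37 °C exposure to compounds at 9 points, 4-fold spaced, in DMEM containing 10% FBS plus 2.5% horse serum. IC50 derived versus no-inhibitor wells.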
For orientation: Cellular ATP, detected with luciferase, serves as a proxy for viable cell number.

Experiment [5] deals with NCI-H358-AMGR drug-resistant cell line. Kind of experiment: NCI-H358-AMGR drug-resistant cell proliferation inhibitory activity test. It counts as cell-based. The conditions noted are these: NCI-H358-AMGR drug-resistant cells, 3 days incubation, CellTiter-Glo. The gist of the method:
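Luminescent CellTiter-Glo read-out after 3-day, 37° C compound exposure (8 points, 5-fold series) of AMG510-resistant NCI-H358 cells plated at 4×10^3 per well.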

Setting [6] is: Homo sapiens, 72 h, MIA Paca-2 cells, 3 days, Table 7, read-out: MIA PaCa-2 (IC50).

PI3Kα, sequence (P42336 whole entry): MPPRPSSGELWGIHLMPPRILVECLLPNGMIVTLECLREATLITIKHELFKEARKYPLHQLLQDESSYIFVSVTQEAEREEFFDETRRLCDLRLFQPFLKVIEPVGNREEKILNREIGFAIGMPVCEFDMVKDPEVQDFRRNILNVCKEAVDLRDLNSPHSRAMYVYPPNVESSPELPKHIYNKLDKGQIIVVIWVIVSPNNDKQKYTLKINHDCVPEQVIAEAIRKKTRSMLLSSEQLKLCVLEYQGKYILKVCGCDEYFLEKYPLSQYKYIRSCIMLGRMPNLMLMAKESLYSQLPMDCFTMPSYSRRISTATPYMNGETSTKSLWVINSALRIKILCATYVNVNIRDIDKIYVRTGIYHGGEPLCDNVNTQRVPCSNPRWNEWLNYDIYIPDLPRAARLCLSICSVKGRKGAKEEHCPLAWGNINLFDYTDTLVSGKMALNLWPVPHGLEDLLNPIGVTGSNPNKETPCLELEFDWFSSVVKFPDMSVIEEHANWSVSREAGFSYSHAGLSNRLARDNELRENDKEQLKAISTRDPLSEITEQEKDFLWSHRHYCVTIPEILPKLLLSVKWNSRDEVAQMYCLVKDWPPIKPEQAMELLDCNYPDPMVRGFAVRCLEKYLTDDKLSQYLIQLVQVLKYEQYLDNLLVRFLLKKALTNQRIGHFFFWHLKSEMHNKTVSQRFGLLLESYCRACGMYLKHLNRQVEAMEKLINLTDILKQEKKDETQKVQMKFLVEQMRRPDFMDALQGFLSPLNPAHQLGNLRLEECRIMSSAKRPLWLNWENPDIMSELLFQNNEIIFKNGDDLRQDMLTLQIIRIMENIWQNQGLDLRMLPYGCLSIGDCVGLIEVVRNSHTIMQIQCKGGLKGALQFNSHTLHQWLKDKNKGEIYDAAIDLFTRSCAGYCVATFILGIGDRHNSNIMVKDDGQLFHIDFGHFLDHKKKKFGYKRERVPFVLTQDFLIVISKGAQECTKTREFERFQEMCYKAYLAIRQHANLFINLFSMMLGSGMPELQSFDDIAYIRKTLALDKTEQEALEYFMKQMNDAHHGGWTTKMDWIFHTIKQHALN
PI3Kα, sequence (P27986 whole entry partner): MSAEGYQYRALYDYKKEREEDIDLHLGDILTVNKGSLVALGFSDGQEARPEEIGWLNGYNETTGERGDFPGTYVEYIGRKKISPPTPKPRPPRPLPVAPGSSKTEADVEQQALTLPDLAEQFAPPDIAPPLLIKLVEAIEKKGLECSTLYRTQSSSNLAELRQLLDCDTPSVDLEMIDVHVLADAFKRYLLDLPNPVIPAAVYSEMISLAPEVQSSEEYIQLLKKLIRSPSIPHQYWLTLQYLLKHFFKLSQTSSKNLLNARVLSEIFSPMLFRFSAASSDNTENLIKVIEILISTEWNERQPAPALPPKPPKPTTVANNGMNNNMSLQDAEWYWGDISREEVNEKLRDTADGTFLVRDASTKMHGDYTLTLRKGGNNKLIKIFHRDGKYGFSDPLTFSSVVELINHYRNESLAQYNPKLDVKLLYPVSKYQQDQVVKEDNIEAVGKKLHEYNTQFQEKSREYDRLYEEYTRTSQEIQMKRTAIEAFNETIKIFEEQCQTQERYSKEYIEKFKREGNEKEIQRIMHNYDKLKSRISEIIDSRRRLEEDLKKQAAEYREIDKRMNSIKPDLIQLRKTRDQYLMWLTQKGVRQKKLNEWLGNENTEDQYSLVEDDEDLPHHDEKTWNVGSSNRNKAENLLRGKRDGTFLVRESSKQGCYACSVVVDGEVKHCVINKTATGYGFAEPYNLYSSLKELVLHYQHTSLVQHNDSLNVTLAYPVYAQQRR
PI3Kδ, sequence (O00329 whole entry): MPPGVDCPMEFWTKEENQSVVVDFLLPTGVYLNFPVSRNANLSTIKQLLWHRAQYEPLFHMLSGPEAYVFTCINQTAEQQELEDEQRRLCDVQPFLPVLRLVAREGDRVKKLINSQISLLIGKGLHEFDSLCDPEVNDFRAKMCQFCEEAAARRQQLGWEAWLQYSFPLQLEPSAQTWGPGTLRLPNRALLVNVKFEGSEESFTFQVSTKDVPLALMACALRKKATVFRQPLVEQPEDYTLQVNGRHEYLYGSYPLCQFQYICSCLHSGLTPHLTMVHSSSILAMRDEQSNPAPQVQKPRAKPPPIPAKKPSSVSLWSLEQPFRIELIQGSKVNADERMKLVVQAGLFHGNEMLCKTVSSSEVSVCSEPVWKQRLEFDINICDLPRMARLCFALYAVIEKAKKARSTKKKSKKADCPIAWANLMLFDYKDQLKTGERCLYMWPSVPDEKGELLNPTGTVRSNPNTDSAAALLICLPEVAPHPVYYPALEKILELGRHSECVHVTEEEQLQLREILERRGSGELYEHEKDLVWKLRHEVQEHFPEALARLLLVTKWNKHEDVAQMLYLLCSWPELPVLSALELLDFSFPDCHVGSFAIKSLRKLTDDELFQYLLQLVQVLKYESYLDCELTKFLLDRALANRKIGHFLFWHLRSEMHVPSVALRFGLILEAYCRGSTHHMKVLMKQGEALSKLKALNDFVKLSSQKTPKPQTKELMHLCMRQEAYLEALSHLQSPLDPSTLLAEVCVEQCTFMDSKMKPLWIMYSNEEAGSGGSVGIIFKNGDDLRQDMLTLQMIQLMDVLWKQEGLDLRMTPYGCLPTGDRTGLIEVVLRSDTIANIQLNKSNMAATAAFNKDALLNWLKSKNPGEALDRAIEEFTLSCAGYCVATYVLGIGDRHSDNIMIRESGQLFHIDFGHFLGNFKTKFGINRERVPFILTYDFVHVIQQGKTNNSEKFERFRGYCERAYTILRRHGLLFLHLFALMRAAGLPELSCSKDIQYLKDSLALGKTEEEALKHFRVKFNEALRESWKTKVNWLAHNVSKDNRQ
PI3Kδ, sequence (P27986 whole entry partner): as the sequence (P27986 whole entry partner) above

Consider `COc1ncc(-c2ccc3ncnc(N4CCN(C(=O)/C=C/C(C)=O)CC4)c3c2)cc1NS(=O)(=O)c1c(F)cccc1C#N` [Example 122, (E)-2-cyano-6-fluoro-N-(2-methoxy-5-(4-(4-(4-oxopent-2-enoyl)piperazin-1-yl)quinazolin-6-yl)pyridin-3-yl)benzenesulfonamide], for which the IC50 in experiment [1] (Table 2) came to 8.1 nM; in experiment [2] (Table 2), 4.7 nM; in experiment [3], 145 nM; in experiment [4] (Homo sapiens, MIA PaCa-2, 72 h, read-out: MIA PaCa-2 (IC50, nM)) it was 106 nM; in experiment [5] (72 h), 128 nM.
`COc1ncc(-c2ccc3ncnc(N4CCN(C(=O)/C=C/C(C)=O)CC4)c3c2)cc1NS(=O)(=O)c1ccc(Cl)cc1F` [Example 177, (E)-4-chloro-2-fluoro-N-(2-methoxy-5-(4-(4-(4-oxopent-2-enoyl)piperazin-1-yl)quinazolin-6-yl)pyridin-3-yl)benzene-sulfonamide]: the concentration for half-maximal inhibition (IC50) in experiment [1] (Table 4) came to 5 nM; in experiment [2] (Table 4), 19.1 nM; in experiment [3] it was 246 nM; in experiment [4] (setting [6]), 25.9 nM; in experiment [5] (72 h), 48.9 nM.
`COc1ncc(-c2ccc3ncnc(N4CC5CCC(C4)N5C(=O)/C=C/C(C)=O)c3c2)cc1NS(=O)(=O)c1c(F)cccc1F` [Example 145, 2,6-difluoro-N-(2-methoxy-5-(4-(8-((E)-4-oxopent-2-enoyl)-3,8-diazabicyclo[3.2.1]octan-3-yl)quinazolin-6-yl)pyridin-3-yl)benzenesulfonamide]: the IC50 stood at 0.44 nM in experiment [1] (Table 4); 23.8 nM in experiment [2] (Table 4); 200 nM in experiment [3]; 77.2 nM in experiment [4] (setting [6]); 223 nM in experiment [5] (72 h).
Turning to `COc1ncc(-c2ccc3ncnc(C4=CCN(C(=O)/C=C/C(C)=O)CC4)c3c2)cc1NS(=O)(=O)c1c(F)cccc1F` [Example 201, (E)-2,6-difluoro-N-(2-methoxy-5-(4-(1-(4-oxopent-2-enoyl)-1,2,3,6-tetrahydropyridin-4-yl)quinazolin-6-yl)pyridin-3-yl)benzenesulfonamide], the half-maximal inhibitory concentration (IC50) in experiment [1] (Table 4) was 3.8 nM; in experiment [2] (Table 4), 11.8 nM; in experiment [3], 140 nM; in experiment [4] (setting [6]), 31.9 nM; in experiment [5] (72 h) it was 5.3 nM.
The matching figures for `COc1ncc(-c2ccc3ncnc(N4CCN(C(=O)/C=C/C(C)=O)CC4)c3n2)cc1NS(=O)(=O)c1cc(F)ccc1F` [Example 217, (E)-2,5-difluoro-N-(2-methoxy-5-(4-(4-(4-oxopent-2-enoyl)piperazin-1-yl)pyrido[3,2-d]pyrimidin-6-yl)pyridin-3-yl) benzene-sulfonamide]: 0.41 nM, 10.6 nM, 207 nM, 21.1 nM and 32.1 nM.
For `CCOc1ncc(-c2ccc3ncnc(N4CCN(C(=O)/C=C/C(C)=O)CC4)c3c2)cc1NS(=O)(=O)c1ccc(F)cc1F` [Example 109, (E)-N-(2-ethoxy-5-(4-(4-(4-oxopent-2-enoyl)piperazin-1-yl)quinazolin-6-yl)pyridin-3-yl)-2,4-difluorobenzenesulfonamide], the IC50 amounted to 3.5 nM in experiment [1] (Table 2); 48.9 nM in experiment [2] (Table 2); 499 nM in experiment [3]; 94.2 nM in experiment [4] (setting [6]); 113 nM in experiment [5] (72 h).
With `COc1ncc(-c2ccc3ncnc(N4CCC5(CN(C(=O)/C=C/C(C)=O)C5)C4)c3c2)cc1NS(=O)(=O)c1c(F)cccc1F` [Example 42], the 50% inhibitory concentration (IC50) came to 1.5 nM in experiment [1]; 16.5 nM in experiment [2] (Table 2); 109 nM in experiment [3]; 284 nM in experiment [4] (MIA Paca-2 cells, 3 days, Table 7, read-out: MIA PaCa-2 (IC50)); 132 nM in experiment [5].
As to `COc1ncc(-c2ccc3ncnc(N4CC5CCC(C4)N5C(=O)/C=C/C(C)=O)c3c2)cc1NS(=O)(=O)c1ccc(F)cc1Cl` [Example 175, 2-chloro-4-fluoro-N-(2-methoxy-5-(4-(8-((E)-4-oxopent-2-enoyl)-3,8-diazabicyclo [3.2.1]octan-3-yl)quinazolin-6-yl)pyridin-3-yl)benzene-sulfonamide], the concentration for half-maximal inhibition (IC50) stood at 6 nM in experiment [1] (Table 4); 16.2 nM in experiment [2] (Table 4); 288 nM in experiment [3]; 22.8 nM in experiment [4] (setting [6]); 58.1 nM in experiment [5] (72 h).
As for `COc1ncc(-c2ccc3ncnc(N4CCN(C(=O)/C=C/C(C)=O)CC4)c3c2)cc1NS(=O)(=O)c1c(F)cccc1F` [Example 22, (E)-2,6-difluoro-N-(2-methoxy-5-(4-(4-(4-oxopent-2-enoyl)piperazin-1-yl)quinazolin-6-yl)pyridin-3-yl)benzenesulfonamide], the IC50 was 11.6 nM in experiment [1] (Table 1); 82.8 nM in experiment [2] (Table 1); 149 nM in experiment [3]; 92.1 nM in experiment [4] (setting [6]); 47.9 nM in experiment [5] (72 h).
As to `COc1ncc(-c2ccc3ncnc(N4CCN(C(=O)/C=C/C(C)=O)CC4)c3n2)cc1NS(=O)(=O)c1ccncc1F` [Example 220, (E)-3-fluoro-N-(2-methoxy-5-(4-(4-(4-oxopent-2-enoyl)piperazin-1-yl)pyrido[3,2-d]pyrimidin-6-yl)pyridin-3-yl) pyridine-4-sulfonamide], the IC50 in experiment [1] (Table 4) came out at 1.1 nM; in experiment [2] (Table 4) it was 11.4 nM; in experiment [3], 274 nM; in experiment [4] (setting [6]), 58.5 nM; in experiment [5] (72 h) it was 207 nM.
Consider `COc1ncc(-c2ccc3ncnc(C4CCN(C(=O)/C=C/C(C)=O)CC4)c3n2)cc1NS(=O)(=O)c1ccccc1F` [Example 232, (E)-2-fluoro-N-(2-methoxy-5-(4-(1-(4-oxopent-2-enoyl)piperidin-4-yl)pyrido[3,2-d]pyrimidin-6-yl)pyridin-3-yl)benzenesulfonamide], for which the half-maximal inhibitory concentration (IC50) stood at 2 nM in experiment [1] (Table 4); 14.6 nM in experiment [2] (Table 4); 269 nM in experiment [3]; 17.7 nM in experiment [4] (setting [6]); 44 nM in experiment [5] (72 h).
Turning to `COc1ncc(-c2ccc3ncnc(N4CCC5(CC4)CN(C(=O)/C=C/C(C)=O)C5)c3c2)cc1NS(=O)(=O)c1ccccc1F` [Example 150, (E)-2-fluoro-N-(2-methoxy-5-(4-(2-(4-oxopent-2-enoyl)-2,7-diazaspiro[3.5]nonan-7-yl)quinazolin-6-yl)pyridin-3-yl)benzenesulfonamide], the IC50 in experiment [1] (Table 4) was found to be 0.11 nM; in experiment [2] (Table 4), 10.7 nM; in experiment [3], 236 nM; in experiment [4] (setting [6]), 58.5 nM; in experiment [5] (72 h), 112 nM.
Take `COc1ncc(-c2ccc3ncnc(N4CCC5(CC4)CN(C(=O)/C=C/C(C)=O)C5)c3c2)cc1NS(=O)(=O)c1c(F)cccc1F` [Example 49, (E)-2,6-difluoro-N-(2-methoxy-5-(4-(2-(4-oxopent-2-enoyl)-2,7-diazaspiro[3.5]nonan-7-yl)quinazolin-6-yl)pyridin-3-yl) benzenesulfonamide]: the IC50 in experiment [1] (Table 2) stood at 2.6 nM; in experiment [2] (Table 2) it was 14.9 nM; in experiment [3], 225 nM; in experiment [4] (setting [6]), 110 nM; in experiment [5] (72 h), 45.5 nM.
With `COc1ncc(-c2ccc3ncnc(N4CCC5(CC4)CN(C(=O)/C=C/C(C)=O)C5)c3c2)cc1NS(=O)(=O)c1c(F)cc(F)cc1F` [Example 101, (E)-2,4,6-trifluoro-N-(2-methoxy-5-(4-(2-(4-oxopent-2-enoyl)-2,7-diazaspiro[3.5]nonan-7-yl)quinazolin-6-yl)pyridin-3-yl)benzenesulfonamide], the 50% inhibitory concentration (IC50) amounted to 9.9 nM in experiment [1] (Table 2); 33.6 nM in experiment [2] (Table 2); 198 nM in experiment [3]; 11.6 nM in experiment [4] (setting [6]); 28.3 nM in experiment [5] (72 h).
Turning to `COc1ncc(-c2ccc3ncnc(N4C5CCC4CN(C(=O)/C=C/C(C)=O)C5)c3c2)cc1NS(=O)(=O)c1ccc(F)cc1F` [Example 144, 2,4-difluoro-N-(2-methoxy-5-(4-(3-((E)-4-oxopent-2-enoyl)-3,8-diazabicyclo[3.2.1]octan-8-yl)quinazolin-6-yl)pyridin-3-yl)benzenesulfonamide], the 50% inhibitory concentration (IC50) in experiment [1] (Table 4) came to 3.2 nM; in experiment [2] (Table 4) it was 13.4 nM; in experiment [3] it was 390 nM; in experiment [4] (setting [6]), 58.7 nM; in experiment [5] (72 h), 43.1 nM.
For the compound `COc1ncc(-c2ccc3ncnc(C4CCN(C(=O)/C=C/C(C)=O)CC4)c3n2)cc1NS(=O)(=O)c1c(F)cccc1F` [Example 233, (E)-2,6-difluoro-N-(2-methoxy-5-(4-(1-(4-oxopent-2-enoyl)piperidin-4-yl)pyrido[3,2-d]pyrimidin-6-yl)pyridin-3-yl)benzenesulfonamide], the IC50 worked out at 4 nM in experiment [1] (Table 4); 31.3 nM in experiment [2] (Table 4); 204 nM in experiment [3]; 14.2 nM in experiment [4] (setting [6]); 52 nM in experiment [5] (72 h).
